Read-outs that look alike come from different tables or passages of the source.
Tests used:
[1] = orientative test for oral acute toxicity in female mice; details: mouse, in vivo
Description: (§1) As experimental models of inflammation, serving for testing the antiinflammatory activity, there were used the method of kaolin-induced edema of rat hind limb (Hillebrecht J.: Arzneim-Forsch. 9, p. 625, 1959). Kaolin edema of rat hind limb was induced by subplantar injection of 10% kaolin suspension dosed 0.1 ml per animal. The substances tested were administered once, one hour before the injection of kaolin, by gavage with the aid of a metallic gastric sound in the form of aqueous suspension with gum acacia added, in volumes of 1 ml/100 g body weight, equivalent to doses of 25 and 100 mg/kg. The edema of the right hind limb was measured volumetrically on a Volumometer Ugo Basile at hours 1; 1.5; 3; 4.5 and 6 after injection of kaolin. Statistical evaluation was always made in comparison with an untreated control group, and the efficacy of each compound was expressed in percent inhibition of inflammation. Experimental animals: female rats, Wistar strain, Konarovice breed, weighing 130-150 g, experimental groups of 6 animals each. Pelleted diet and drinking water were served ad libitum. This phase of limb edema induced by injection of kaolin suspension represents an acute phase of inflammatory reaction. In addition, orientative tests for oral acute toxicity were carried out with the compounds tested in female mice, S strain, Konarovice breed, weighing 16-20 g. Each compound was administered once by gavage, dosed 1 g/kg, in the form of aqueous suspensions with gum acacia added. Experimental groups of 5 animals each were employed. The deaths were checked for 1 week after administration.

[2] = system: kaolin-induced edema of rat hind limb; assay: kaolin-induced edema of rat hind limb (antiinflammatory activity, gavage); type: in vivo, rat (Wistar strain, Konarovice breed, female); details: po, 1 h, by gavage, once, one hour before kaolin injection, vs untreated control group, footnotes mark + statistically significant, n not statistically significant
Description: as §1

[3] = oral (gavage), single dose 1 g/kg, deaths checked for 1 week, read-out: LD50 oral mice

Row | SMILES | LD50 at 168 h [1, 3] [mg/kg] | LD50 at 168 h ([1]; po) [mg/kg] | inhibition in vivo at 25 mg/kg [2] [%]
1 | COc1ccc(COc2ccc(C(C)C(=O)O)cc2Cl)cc1Cl (stereo not drawn) [α-[3-Chloro-4-(3'-chloro-4'-methoxybenzyloxy)phenyl] propionic acid, reference compound] | < 1000 | – | –
2 | CC(C(=O)O)c1ccc(OCc2ccc(Cl)cc2)c(Cl)c1 (stereo not drawn) [α-[3-Chloro-4-(4'-chlorobenzyloxy)-phenyl] propionic acid, reference compound] | – | > 1000 | 25
3 | COc1ccc(COc2ccc(CC(=O)O)cc2Cl)cc1Cl [3-chloro-4-(3'-chloro-4'-methoxybenzyloxy) phenylacetic acid] | > 1000 | – | 17
4 | CC(C)Oc1ccc(COc2ccc(CC(=O)O)cc2Cl)cc1 [3-chloro-4-(4'-isopropoxybenzyloxy) phenylacetic acid] | < 1000 | – | –
5 | O=C(O)Cc1ccc(OCc2ccc(Cl)cc2)c(Cl)c1 [3-Chloro-4-(4'-chlorobenzyloxy) phenylacetic acid] | > 1000 | – | 28
6 | CC(C)Oc1ccc(COc2ccc(C(C)C(=O)O)cc2Cl)cc1 (stereo not drawn) [α-[3-Chloro-4-(4'-isopropoxybenzyloxy)phenyl] propionic acid, reference compound] | < 1000 | – | –
7 | O=C(O)Cc1ccc(OCc2ccccc2)c(Cl)c1 [3-Chloro-4-benzyloxyphenylacetic acid, 3-chloro-4-benzyloxyphenylacetic acid] | > 1000 | – | 39
8 | CC(C(=O)O)c1ccc(OCc2ccccc2)c(Cl)c1 (stereo not drawn) [α-(3-Chloro-4-benzyloxyphenyl)-propionic acid, reference compound] | 1000 | – | 14
